Laboratory results: ChEMBL document CHEMBL5614400, “Emerging therapeutics: The imidazo[1,2-b]pyridazine scaffold as a novel drug candidate for eumycetoma, a neglected tropical disease” (Eur J Med Chem, 2024)
Converted amounts (≈) assume the structure as drawn. The source made the active and inactive calls. The rule behind the calls is not given here.

Key:
Madurella mycetomatis [1] = experiment: Antifungal activity against Madurella mycetomatis I3 by XTT assay; assay type: functional
Madurella mycetomatis [2] = experiment: Antifungal activity against Madurella mycetomatis MM55 by XTT assay; assay type: functional, organism-based
Madurella mycetomatis [3] = experiment: Antifungal activity against Madurella mycetomatis CBS247.48 by XTT assay; assay type: functional
Madurella mycetomatis [4] = experiment: Antifungal activity against Madurella mycetomatis Peru72012 by XTT assay; assay type: functional
Madurella mycetomatis [5] = experiment: Antifungal activity against Madurella mycetomatis I11 by XTT assay; assay type: functional
Madurella mycetomatis [6] = experiment: Antifungal activity against Madurella mycetomatis MM50 by XTT assay; assay type: functional
Madurella mycetomatis [7] = experiment: Antifungal activity against Madurella mycetomatis I1 by XTT assay; assay type: functional
Madurella mycetomatis [8] = experiment: Antifungal activity against Madurella mycetomatis SO1 by XTT assay; assay type: functional
[9] = Selectivity index, ratio of IC50 for mouse NIH3T3 cells to IC50 for Madurella mycetomatis MM55; assay type: toxicity; details: read-out: Ratio IC50
[10] = Cytotoxicity against mouse NIH3T3 cells incubated for 5 days by MTT assay; assay type: toxicity, cell-based
Madurella mycetomatis [11] = experiment: Antifungal activity against Madurella mycetomatis P1 by XTT assay; assay type: functional
Madurella mycetomatis [12] = experiment: Antifungal activity against Madurella mycetomatis AL1 by XTT assay; assay type: functional
Madurella mycetomatis [13] = experiment: Antifungal activity against Madurella mycetomatis MM55 at 100 uM by XTT assay; assay type: functional, organism-based
Madurella mycetomatis [14] = experiment: Antifungal activity against Madurella mycetomatis MM55 at 25 uM by XTT assay; assay type: functional, organism-based

Row | MIC (Madurella mycetomatis [1]) [µM] | MIC (Madurella mycetomatis [2]; Madurella mycetomatis, MM55) [µM] | MIC (Madurella mycetomatis [3]) [µM] | MIC (Madurella mycetomatis [4]) [µM] | MIC (Madurella mycetomatis [5]) [µM] | MIC (Madurella mycetomatis [6]) [µM] | MIC (Madurella mycetomatis [7]) [µM] | MIC (Madurella mycetomatis [8]) [µM] | MIC (Madurella mycetomatis [11]) [µM] | MIC (Madurella mycetomatis [12]) [µM] | Structure (SMILES) | IC50 (Madurella mycetomatis [2]) [µM] | selectivity ratio [9] | IC50 at 5 days [10] [µM] | Activity (Madurella mycetomatis [13]) | Activity (Madurella mycetomatis [14]) | IC50 (Madurella mycetomatis [2]; Madurella mycetomatis, MM55) [µM]
1 | 8 (≈ 3.41 µg/mL) | 8 (≈ 3.41 µg/mL) | 8 (≈ 3.41 µg/mL) | 8 (≈ 3.41 µg/mL) | 8 (≈ 3.41 µg/mL) | 8 (≈ 3.41 µg/mL) | 8 (≈ 3.41 µg/mL) | 16 (≈ 6.82 µg/mL) | 8 (≈ 3.41 µg/mL) | 8 (≈ 3.41 µg/mL) | CN1CCN(c2cc(-c3cccc4[nH]ccc34)c3nc(-c4ccc(F)cc4)cn3n2)CC1 [listing 1 of 2 here] | 1.7 | 7.5 | 12.9 | – | – | –
2 | – | – | – | – | – | – | – | – | – | – | CN1CCN(c2cc(-c3ccccc3)c3nc(-c4ccc(F)cc4)cn3n2)CC1 | – | – | – | inactive | inactive | –
3 | – | – | – | – | – | – | – | – | – | – | CN1CCN(c2cc(-c3cccs3)c3nc(-c4ccc(F)cc4)cn3n2)CC1 | – | – | – | – | – | 8.5
4 | 8 (≈ 3 µg/mL) | 8 (≈ 3 µg/mL) | 8 (≈ 3 µg/mL) | 8 (≈ 3 µg/mL) | 4 (≈ 1.5 µg/mL) | 8 (≈ 3 µg/mL) | 8 (≈ 3 µg/mL) | 8 (≈ 3 µg/mL) | 8 (≈ 3 µg/mL) | 8 (≈ 3 µg/mL) | CN1CCN(c2cc(-c3ccsc3)c3nc(-c4ccccc4)cn3n2)CC1 | – | 5.1 | 10.2 | – | – | 3.5
5 | – | – | – | – | – | – | – | – | – | – | CN1CCN(c2cc(-c3ccnn3C)c3nc(-c4ccc(F)cc4)cn3n2)CC1 | – | – | – | Active | inactive | –
6 | – | – | – | – | – | – | – | – | – | – | CN1CCN(c2cc(-c3ccsc3)c3nc(-c4ccc(F)cc4)cn3n2)CC1 | 5.5 | – | – | – | – | –
7 | 8 (≈ 3.41 µg/mL) | 8 (≈ 3.41 µg/mL) | 8 (≈ 3.41 µg/mL) | 16 (≈ 6.82 µg/mL) | 8 (≈ 3.41 µg/mL) | 8 (≈ 3.41 µg/mL) | 16 (≈ 6.82 µg/mL) | 16 (≈ 6.82 µg/mL) | 8 (≈ 3.41 µg/mL) | 8 (≈ 3.41 µg/mL) | CN1CCN(c2cc(-c3cccc4[nH]ccc34)c3nc(-c4cccc(F)c4)cn3n2)CC1 | – | 4.8 | 10.1 | – | – | 1.8
8 | – | – | – | – | – | – | – | – | – | – | CN1CCN(c2cc(-c3cccc4[nH]ccc34)c3nc(-c4ccccc4F)cn3n2)CC1 | – | – | – | – | – | 9.2
9 | – | – | – | – | – | – | – | – | – | – | CN1CCN(c2cc(-c3cnn(C)c3)c3nc(-c4ccc(F)cc4)cn3n2)CC1 | – | – | – | Active | Active | –
10 | – | – | – | – | – | – | – | – | – | – | CN1CCN(c2cc(-c3cccc4[nH]ccc34)c3nc(-c4ccc(F)cc4)cn3n2)CC1 [listing 2 of 2 here] | – | – | – | Active | Active | –
11 | – | – | – | – | – | – | – | – | – | – | CN1CCN(c2cc(-c3ccncc3)c3nc(-c4ccc(F)cc4)cn3n2)CC1 | – | – | – | Active | inactive | –
12 | 4 (≈ 1.95 µg/mL) | 8 (≈ 3.9 µg/mL) | 2 (≈ 0.975 µg/mL) | 4 (≈ 1.95 µg/mL) | 4 (≈ 1.95 µg/mL) | 4 (≈ 1.95 µg/mL) | 4 (≈ 1.95 µg/mL) | 4 (≈ 1.95 µg/mL) | 4 (≈ 1.95 µg/mL) | 4 (≈ 1.95 µg/mL) | CN1CCN(c2cc(-c3cnc(N4CCN(C)CC4)nc3)c3nc(-c4cccc(F)c4)cn3n2)CC1 | – | 5.5 | 10.5 | – | – | 4.7
13 | 8 (≈ 3.39 µg/mL) | 8 (≈ 3.39 µg/mL) | 8 (≈ 3.39 µg/mL) | 8 (≈ 3.39 µg/mL) | 4 (≈ 1.69 µg/mL) | 4 (≈ 1.69 µg/mL) | 8 (≈ 3.39 µg/mL) | 8 (≈ 3.39 µg/mL) | 8 (≈ 3.39 µg/mL) | 8 (≈ 3.39 µg/mL) | OCCN1CCN(c2cc(-c3ccsc3)c3nc(-c4ccccc4F)cn3n2)CC1 | – | 4 | 10.5 | – | – | 1.3
14 | – | – | – | – | – | – | – | – | – | – | CN1CCN(c2cc(-c3ccc(N)nc3)c3nc(-c4ccccc4F)cn3n2)CC1 | – | – | – | – | – | 9.8
15 | 8 (≈ 3.39 µg/mL) | 4 (≈ 1.69 µg/mL) | 4 (≈ 1.69 µg/mL) | 8 (≈ 3.39 µg/mL) | 4 (≈ 1.69 µg/mL) | 8 (≈ 3.39 µg/mL) | 8 (≈ 3.39 µg/mL) | 8 (≈ 3.39 µg/mL) | 4 (≈ 1.69 µg/mL) | 8 (≈ 3.39 µg/mL) | OCCN1CCN(c2cc(-c3ccsc3)c3nc(-c4cccc(F)c4)cn3n2)CC1 | – | 8.2 | 10.7 | – | – | 0.9
16 | – | – | – | – | – | – | – | – | – | – | CN1CCN(c2cc(-c3cccc4[nH]ccc34)c3nc(-c4ccccc4)cn3n2)CC1 | – | – | – | Active | Active | –
17 | 16 (≈ 7.8 µg/mL) | 16 (≈ 7.8 µg/mL) | 4 (≈ 1.95 µg/mL) | 4 (≈ 1.95 µg/mL) | 4 (≈ 1.95 µg/mL) | 4 (≈ 1.95 µg/mL) | 4 (≈ 1.95 µg/mL) | 4 (≈ 1.95 µg/mL) | 4 (≈ 1.95 µg/mL) | 4 (≈ 1.95 µg/mL) | CN1CCN(c2cc(-c3cnc(N4CCN(C)CC4)nc3)c3nc(-c4ccccc4F)cn3n2)CC1 | – | 2 | 9.6 | – | – | 4
18 | 8 (≈ 3.15 µg/mL) | 8 (≈ 3.15 µg/mL) | 8 (≈ 3.15 µg/mL) | 16 (≈ 6.3 µg/mL) | 8 (≈ 3.15 µg/mL) | 8 (≈ 3.15 µg/mL) | 8 (≈ 3.15 µg/mL) | 8 (≈ 3.15 µg/mL) | 8 (≈ 3.15 µg/mL) | 8 (≈ 3.15 µg/mL) | CN1CCN(c2cc(-c3ccsc3)c3nc(-c4ccccc4F)cn3n2)CC1 | – | 3.7 | 14.6 | – | – | 1.9
19 | 8 (≈ 3.15 µg/mL) | 8 (≈ 3.15 µg/mL) | 8 (≈ 3.15 µg/mL) | 8 (≈ 3.15 µg/mL) | 8 (≈ 3.15 µg/mL) | 8 (≈ 3.15 µg/mL) | 8 (≈ 3.15 µg/mL) | 8 (≈ 3.15 µg/mL) | 8 (≈ 3.15 µg/mL) | 8 (≈ 3.15 µg/mL) | CN1CCN(c2cc(-c3ccsc3)c3nc(-c4cccc(F)c4)cn3n2)CC1 | – | 2.5 | 11.9 | – | – | 2.1
20 | > 16 | 8 (≈ 4.38 µg/mL) | > 16 | 16 (≈ 8.76 µg/mL) | > 16 | > 16 | 16 (≈ 8.76 µg/mL) | > 16 | > 16 | > 16 | OCCN1CCN(c2cc(-c3cnc(N4CCN(CCO)CC4)nc3)c3nc(-c4ccccc4F)cn3n2)CC1 | – | 0.8 | 1.4 | – | – | 3.8
